Laboratory results from US12410160B2 (Gilead Sciences, Inc., priority 2021, dated 2025).
Like-named read-outs stand apart in the source and are kept apart here.

Assays:
[1] = biological target: human KHK-C (Homo sapiens (Human), UniProt P50053); experiment: KHK Biochemical Assay (IC50), ADP-Glo, KHK-C; settings: average of at least two separate assays
Summary of the method: (§1)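 ADP-Glo luminescence measured ADP made over a 4 h room-temperature reaction of ATP plus fructose, started after 30 min compound–enzyme pre-incubation. Buffer: 50 mM Hepes pH 7.4, 140 mM KCl, 5 mM MgCl2, 0.01% Triton-X. Enzyme was His-tagged, BL21 (DE3)-expressed, Ni-NTA-purified; compounds in 1:3 DMSO dilution series.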

[2] = system: HepG2 cells; experiment: F1P Cell-Based Assay (EC50), 13C6-fructose-1-phosphate in HepG2 cells (cell culture medium or 50% human plasma); settings: Homo sapiens
[3] = biological target: human OATP1B1 (Homo sapiens (Human), UniProt Q9Y6L6); experiment: In Vitro Inhibition Assessment with Human OATP1B1 Transporter; type: in vitro ADME; settings: HEK293-OATP1B1 cells, probe substrate pravastatin
Sequence of human OATP1B1 (Q9Y6L6 whole entry): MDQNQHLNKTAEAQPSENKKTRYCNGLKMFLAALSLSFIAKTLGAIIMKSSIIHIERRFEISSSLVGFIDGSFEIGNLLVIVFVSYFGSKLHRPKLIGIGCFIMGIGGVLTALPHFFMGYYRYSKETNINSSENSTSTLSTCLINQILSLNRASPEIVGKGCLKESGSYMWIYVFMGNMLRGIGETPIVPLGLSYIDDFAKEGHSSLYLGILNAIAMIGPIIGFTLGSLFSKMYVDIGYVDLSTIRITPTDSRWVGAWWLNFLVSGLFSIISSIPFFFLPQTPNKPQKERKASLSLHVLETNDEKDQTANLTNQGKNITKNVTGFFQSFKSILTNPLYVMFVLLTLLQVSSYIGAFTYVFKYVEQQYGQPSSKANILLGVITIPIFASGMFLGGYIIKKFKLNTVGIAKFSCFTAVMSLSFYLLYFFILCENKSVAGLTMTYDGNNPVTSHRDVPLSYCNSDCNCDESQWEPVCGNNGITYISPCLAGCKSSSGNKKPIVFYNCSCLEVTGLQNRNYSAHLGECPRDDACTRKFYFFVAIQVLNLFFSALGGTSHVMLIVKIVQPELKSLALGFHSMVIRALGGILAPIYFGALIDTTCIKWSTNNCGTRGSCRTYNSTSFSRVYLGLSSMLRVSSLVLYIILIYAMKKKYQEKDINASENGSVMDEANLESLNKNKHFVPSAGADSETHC
Protocol: In Vitro Inhibition Assessment with Human OATP1B1 and OATP1B3 Transporters Assay Protocol
The purpose of this assay was to assess the inhibition potential of test article (TA) toward human OATP1B1 and OATP1B3 transporters in vitro using cell lines transfected with the individual transporters. The assays used clinically relevant probe substrate pravastatin and a known positive control inhibitor rifampicin. HEK293 mock, HEK293-OATP1B1, and HEK293-OATP1B3 transfected cells were seeded onto CellCoat Poly-D-Lysine coated 96 well black cell culture plates with clear bottoms (Greiner bio-one, Cat. #655946) at a density of 70,000 cells/well and cultured to confluency overnight. Seeding media used was Dulbecco's Modification of Eagle's Medium (DMEM—with GlutaMAX high glucose; Gibco, Cat #: 10569-010) supplemented with 10% fetal bovine serum, 0.1 mM non-essential amino acids, 100 U/mL penicillin, and 100 μg/mL streptomycin. On assay day, media were removed from the assay plates and cells were washed with Hanks' Balanced Salt Solution (HBSS Buffer) (Corning, Cat. #21-023-CV). All TAs and reference inhibitor were serially diluted in DMSO to create spiking solutions at concentrations of 250-fold of final assay concentrations (final DMSO content 0.4%). Cells were preincubated with HBSS buffer containing test compounds for 15 minutes. After the removal of HBSS buffer, dose solution containing TA or reference inhibitor and probe substrate were added to the HEK293-OATP1B1, HEK-293-OATP1B3 and its associated mock cell plate, respectively. The co-incubation period of TAs with the corresponding probe substrate for all plates was 5 minutes. An aliquot of the dose solution was removed from the HEK293 mock cell plates and analysed for dose recovery. Cells were then washed three times with ice cold HBSS buffer and then immediately extracted with methanol:water (70:30 v:v) containing internal standard labetolol (30 nM). The supernatants were evaporated to dryness on injection plates and reconstituted in 80% water containing 20% acetonitrile and 0.1% formic acid for analysis by liquid chromatography with tandem mass spectrometry (LC-MS-MS).
Fractional transport activities were calculated from the equation: Activity %=(A−B)/(C−D)×100
• A: translocated amount of substrate in the presence of TA on transfected cells • B: translocated amount of substrate in the presence of TA on Mock cells • C: translocated amount of substrate in the presence of solvent on transfected cells • D: translocated amount of substrate in the presence of solvent on Mock cells
GraphPad Prism 7.0 (GraphPad Software Inc., San Diego, CA) was used for curve fitting and determination of reaction parameters. In uptake transporter inhibition assays, the IC50 (μM) was calculated, where applicable. IC50 was defined as the concentration of TA required to inhibit maximal activity by 50%.

[4] = biological target: KHK-C expressed in NRK-52E cells (Homo sapiens (Human), UniProt P50053); experiment: KHK-C Cell-based Assay (EC50), NRK CTG, fructose-mediated ATP-depletion
Sequence of KHK-C expressed in NRK-52E cells (P50053 whole entry): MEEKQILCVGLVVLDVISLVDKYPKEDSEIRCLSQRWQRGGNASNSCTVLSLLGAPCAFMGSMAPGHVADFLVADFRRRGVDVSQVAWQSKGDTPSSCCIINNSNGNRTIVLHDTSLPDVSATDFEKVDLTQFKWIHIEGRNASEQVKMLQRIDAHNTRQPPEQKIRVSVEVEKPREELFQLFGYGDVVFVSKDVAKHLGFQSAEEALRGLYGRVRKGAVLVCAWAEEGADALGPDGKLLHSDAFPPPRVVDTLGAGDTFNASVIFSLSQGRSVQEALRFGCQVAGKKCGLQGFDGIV
Protocol: Compounds were tested in a high-throughput 384-well assay format for their ability to attenuate fructose-mediated ATP-depletion in Normal Rat Kidney epithelial cells (NRK-52E) using the Cell-Titer Glo (CTG) assay, which measures cellular ATP levels based on luminescence signal by using the luciferase-luciferin system. Compounds were serially diluted (1:3) in DMSO.
The plates were incubated at 37° C., 5% CO2 for one day. Cells were then transduced on day 2 with 200 MOI of Adenovirus (VQAd KHKC C-(K)-DYK ViraQuest Inc.) using the same medium and method as day-1 to induce KHK-C expression in the cells. Cells were incubated at 37° C., 5% CO2 for one day. On day-3, the medium was changed to DMEM medium (Corning, Catalog #10-014-CM) with 0.5% FBS and Penicillin-Streptomycin after washing the cells twice with sterile PBS on the BioTEK EL406 washer and dispenser. Test compounds were then diluted 200-fold into the assay plates using the BioMek FX and were incubated for 1 hour at 37° C., 5% CO2. 25 mM (final concentration) of fructose was then dispensed into the plates using the BioTEK EL406 dispenser and the plates were incubated at 37° C., 5% CO2 for 48 hours before addition of CTG reagent and measurement of luminescence signal.

[5] = biological target: human KHK-A (Homo sapiens (Human), UniProt P50053); experiment: KHK Biochemical Assay (IC50), ADP-Glo, KHK-A; settings: average of at least two separate assays
Sequence of human KHK-A (P50053 other isoform, or with tags, fused parts or gaps): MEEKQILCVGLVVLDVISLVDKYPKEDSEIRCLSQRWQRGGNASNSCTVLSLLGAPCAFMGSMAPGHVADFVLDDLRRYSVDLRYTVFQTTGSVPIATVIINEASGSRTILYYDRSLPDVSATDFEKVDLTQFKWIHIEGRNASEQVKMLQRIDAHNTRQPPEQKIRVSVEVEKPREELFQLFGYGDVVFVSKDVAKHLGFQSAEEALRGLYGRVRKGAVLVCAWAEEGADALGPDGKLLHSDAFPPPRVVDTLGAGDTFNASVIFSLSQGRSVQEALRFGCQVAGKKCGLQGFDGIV
Summary of the method: as §1

[6] = HepG2, HepG2 cells, 50% human plasma, read-out: F1P 50% HP EC50
[7] = HepG2, read-out: F1P 10% FBS EC50, HepG2 cells, cell culture medium (10% FBS)

Sequence of human KHK-C (P50053 whole entry): as the sequence (P50053 whole entry) above

| SMILES | IC50 [1] [nM] | EC50 [2, 6] [nM] | EC50 [2, 7] [nM] | IC50 [3] [nM] | EC50 [4] [nM] | IC50 ([1]; ADP-Glo) [nM] | IC50 ([5]; ADP-Glo) [nM] | IC50 [5] [nM] |
| --- | --- | --- | --- | --- | --- | --- | --- | --- |
| C[C@H]1[C@H](O)CN1c1nc(-c2ccc3c(c2)OCC3NS(C)(=O)=O)c2c(n1)C(F)(F)CC2 (mixture of isomers) [Example 465] | 1.4 | 33.5 | 15.4 | 4580 | 14.9 |  |  |  |
| C[C@H]1CCN1c1nc2c(c(-c3cccc(CCC(=O)O)c3)n1)CCC2 [Example 4, (S)-3-(3-(2-(2-methylazetidin-1-yl)-6,7-dihydro-5H-cyclopenta[d]pyrimidin-4-yl)phenyl)propanoic acid] |  |  |  | 928 | 310 | 46.1 | 41.4 |  |
| C[C@H]1CCN1c1nc2c(c(-c3cccc(C(=O)O)c3)n1)CCC2 [Example 9, (S)-3-(2-(2-methylazetidin-1-yl)-6,7-dihydro-5H-cyclopenta[d]pyrimidin-4-yl)benzoic acid] |  |  |  | 448 | 611 | 68.6 | 48.9 |  |
| C[C@H]1[C@H](O)CN1c1nc2c(c(-c3ccc(C4(N)COC4)cc3)n1)CCC2 [Example 159, (2S,3R)-1-(4-(4-(3-aminooxetan-3-yl)phenyl)-6,7-dihydro-5H-cyclopenta[d]pyrimidin-2-yl)-2-methylazetidin-3-ol] |  |  |  | 7400 | 36.9 | 10.1 | 25.6 |  |
| CCOc1cc(-c2nc(N3C[C@@H](O)[C@@H]3C)nc3c2CCC3(F)F)ccc1C(N)=O [Example 170, 4-(7,7-difluoro-2-((2S,3R)-3-hydroxy-2-methylazetidin-1-yl)-6,7-dihydro-5H-cyclopenta[d]pyrimidin-4-yl)-2-ethoxybenzamide] |  | 80.3 | 30.2 | 892 | 46.1 | 11.2 |  |  |
| C[C@H]1[C@H](O)CN1c1nc2c(c(-c3cccc(CNS(C)(=O)=O)c3)n1)CCC2 [Example 285] |  |  |  | 1260 | 82.4 | 47.8 | 57.2 |  |
| C[C@H]1CCN1c1nc(-c2ccc3c(=O)[nH]ccc3c2)c2c(n1)C(F)(F)CC2 [Example 317, (S)-6-(7,7-difluoro-2-(2-methylazetidin-1-yl)-6,7-dihydro-5H-cyclopenta[d]pyrimidin-4-yl)isoquinolin-1(2H)-one] |  |  |  | 284 | 3.5 | 1.7 | 4.9 |  |
| C[C@H]1[C@H](O)CN1c1nc(-c2cccc(S(N)(=O)=O)c2)c2c(n1)C(F)(F)CC2 [Example 322, 3-(7,7-difluoro-2-((2S,3R)-3-hydroxy-2-methylazetidin-1-yl)-6,7-dihydro-5H-cyclopenta[d]pyrimidin-4-yl)benzenesulfonamide] |  |  |  | 13300 | 76.4 | 7.4 | 5.1 |  |
| C[C@H]1[C@H](O)CN1c1nc2c(c(-c3ccc4c(=O)[nH]ccc4c3)n1)CCC2 [Example 373, 6-[2-[(2S,3R)-3-hydroxy-2-methyl-azetidin-1-yl]-6,7-dihydro-5H-cyclopenta[d]pyrimidin-4-yl]-2H-isoquinolin-1-one] |  |  |  | 379 | 53.8 | 20.4 | 54 |  |
| C[C@H]1CCN1c1nc2c(c(-c3cc(F)c4c(=O)[nH]ccc4c3)n1)CCC2 [Example 382, 8-fluoro-6-[2-[(2S)-2-methylazetidin-1-yl]-6,7-dihydro-5H-cyclopenta[d]pyrimidin-4-yl]-2H-isoquinolin-1-one] |  |  |  | 149 | 13.8 | 6.3 | 16.1 |  |
| C[C@H]1CCN1c1nc2c(c(-c3ccc4c(=O)[nH]cnc4c3)n1)CCC2 [Example 383, 7-[2-[(2S)-2-methylazetidin-1-yl]-6,7-dihydro-5H-cyclopenta[d]pyrimidin-4-yl]-3H-quinazolin-4-one] |  |  |  | 194 | 7.3 | 4.4 | 10.8 |  |
| C[C@H]1[C@H](O)CN1c1nc2c(c(-c3ccc4c(N)nccc4c3)n1)CCC2 [Example 385, (2S,3R)-1-[4-(1-amino-6-isoquinolyl)-6,7-dihydro-5H-cyclopenta[d]pyrimidin-2-yl]-2-methyl-azetidin-3-ol] |  | 11.1 | 6.5 | 687 | 4.2 |  |  |  |
| C[C@H]1CCN1c1nc2c(c(-c3ccc4c(=O)[nH]ncc4c3)n1)CCC2 [Example 427, 6-[2-[(2S)-2-methylazetidin-1-yl]-6,7-dihydro-5H-cyclopenta[d]pyrimidin-4-yl]-2H-phthalazin-1-one] | 30.2 |  |  | 210 | 40.2 |  |  | 17.8 |
| C[C@H]1CCN1c1nc2c(c(-c3ccc4c(=O)[nH]cc(S(N)(=O)=O)c4c3)n1)CCC2 [Example 433, 6-[2-[(2S)-2-methylazetidin-1-yl]-6,7-dihydro-5H-cyclopenta[d]pyrimidin-4-yl]-1-oxo-2H-isoquinoline-4-sulfonamide] | 6.3 |  |  | 967 | 484 |  |  | 27.2 |
| C[C@H]1CCN1c1nc2c(c(-c3cc4c(N)nccc4s3)n1)CCC2 [Example 446, 2-[2-[(2S)-2-methylazetidin-1-yl]-6,7-dihydro-5H-cyclopenta[d]pyrimidin-4-yl]thieno[3,2-c]pyridin-4-amine] | 3.4 |  |  | 1810 | 5 |  |  |  |
| C[C@H]1[C@H](O)CN1c1nc2c(c(-c3cc4cc[nH]c(=O)c4s3)n1)CCC2 [Example 450, 2-[2-[(2S,3R)-3-hydroxy-2-methyl-azetidin-1-yl]-6,7-dihydro-5H-cyclopenta[d]pyrimidin-4-yl]-6H-thieno[2,3-c]pyridin-7-one] | 9.3 |  |  | 992 | 298 |  |  |  |
| C[C@H]1[C@H](O)CN1c1nc(-c2ccc3c(c2)S(=O)(=O)NC3)c2c(n1)C(F)(F)CC2 [Example 598] | 2.4 |  |  | 3140 | 15.7 |  |  |  |
| C[C@H]1[C@H](O)CN1c1nc(-c2cnc3c(c2)OCCNC3=O)c2c(n1)C(F)(F)CC2 [Example 599] | 20.3 |  |  | 4380 | 4900 |  |  |  |
| C[C@H]1[C@H](O)CN1c1nc(-c2cc3cc[nH]c(=O)c3s2)c2c(n1)C(F)(F)CC2 [Example 643, 2-[7,7-difluoro-2-[(2S,3R)-3-hydroxy-2-methyl-azetidin-1-yl]-5,6-dihydrocyclopenta[d]pyrimidin-4-yl]-6H-thieno[2,3-c]pyridin-7-one] | 2.6 |  |  | 798 | 70.8 |  |  |  |
| C[C@H]1[C@H](O)CN1c1nc(-c2ccc(S(C)(=N)=O)cc2)c2c(n1)C(F)(F)CC2 (stereo partly drawn) [Example 715, (4-(7,7-difluoro-2-((2S,3R)-3-hydroxy-2-methylazetidin-1-yl)-6,7-dihydro-5H-cyclopenta[d]pyrimidin-4-yl)phenyl)(imino)(methyl)-λ^6-sulfanone] | 35.2 |  |  | 30500 | 258 |  |  |  |
| C[C@H]1[C@H](O)CN1c1nc(-c2ccc(C3(O)CS(=O)(=O)C3)cc2)c2c(n1)C(F)(F)CC2 [Example 735] | 6.5 |  |  | 2870 | 52.1 |  |  |  |
| C[C@H]1[C@H](O)CN1c1nc(-c2cc3c(c(C(N)=O)c2)CCO3)c2c(n1)C(F)(F)CC2 [Example 756, 6-[7,7-difluoro-2-[(2S,3R)-3-hydroxy-2-methyl-azetidin-1-yl]-5,6-dihydrocyclopenta[d]pyrimidin-4-yl]-2,3-dihydrobenzofuran-4-carboxamide] | 7 |  |  | 1750 | 52.2 |  |  |  |
